Data as given in ChEMBL document CHEMBL1130529, “Synthesis and biological activity of 1,2,3,4-tetrahydroquinoline and 3,4-(1H)-dihydroquinolin-2-one analogs of retinoic acid” (Bioorg Med Chem Lett, 1997).

Key:
[1] = target: T1, Ornithine decarboxylase (Mus musculus) (UniProt P00860); experiment: Inhibition of ornithine decarboxylase activity in hairless mouse skin in vivo; format: organism-based
T1 sequence (whole entry): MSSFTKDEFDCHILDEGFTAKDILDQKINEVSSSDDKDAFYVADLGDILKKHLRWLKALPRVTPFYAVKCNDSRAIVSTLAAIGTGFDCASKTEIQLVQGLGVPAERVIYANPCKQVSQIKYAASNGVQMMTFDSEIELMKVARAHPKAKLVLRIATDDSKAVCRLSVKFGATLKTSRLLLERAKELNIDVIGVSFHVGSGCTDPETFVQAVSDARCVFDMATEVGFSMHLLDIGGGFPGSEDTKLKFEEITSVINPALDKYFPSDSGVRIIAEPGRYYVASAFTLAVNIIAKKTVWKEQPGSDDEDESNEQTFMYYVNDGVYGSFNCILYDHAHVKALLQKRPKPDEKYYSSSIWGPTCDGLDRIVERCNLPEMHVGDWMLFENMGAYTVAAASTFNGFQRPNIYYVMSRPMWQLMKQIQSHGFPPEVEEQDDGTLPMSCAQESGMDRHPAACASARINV

[2] = target: T2, Retinoic acid receptor beta (Homo sapiens, UniProt P10826); experiment: Binding affinity for Retinoic acid receptor beta
T2 sequence (P10826 whole entry): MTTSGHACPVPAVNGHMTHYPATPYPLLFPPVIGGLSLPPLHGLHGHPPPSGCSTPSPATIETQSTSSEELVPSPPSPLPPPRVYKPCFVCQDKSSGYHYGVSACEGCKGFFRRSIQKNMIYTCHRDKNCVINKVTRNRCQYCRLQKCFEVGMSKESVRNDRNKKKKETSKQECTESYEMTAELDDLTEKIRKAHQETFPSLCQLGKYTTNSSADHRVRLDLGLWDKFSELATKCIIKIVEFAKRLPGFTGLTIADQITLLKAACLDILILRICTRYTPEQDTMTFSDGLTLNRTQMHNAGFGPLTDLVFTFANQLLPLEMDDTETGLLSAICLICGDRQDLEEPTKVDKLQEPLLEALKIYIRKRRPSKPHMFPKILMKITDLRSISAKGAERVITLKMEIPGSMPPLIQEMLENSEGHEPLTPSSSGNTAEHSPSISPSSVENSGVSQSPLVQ

[3] = target: T3, Retinoic acid receptor gamma (Homo sapiens, UniProt P13631); experiment: Transactivation potency for Retinoic acid receptor gamma
T3 sequence (P13631 whole entry): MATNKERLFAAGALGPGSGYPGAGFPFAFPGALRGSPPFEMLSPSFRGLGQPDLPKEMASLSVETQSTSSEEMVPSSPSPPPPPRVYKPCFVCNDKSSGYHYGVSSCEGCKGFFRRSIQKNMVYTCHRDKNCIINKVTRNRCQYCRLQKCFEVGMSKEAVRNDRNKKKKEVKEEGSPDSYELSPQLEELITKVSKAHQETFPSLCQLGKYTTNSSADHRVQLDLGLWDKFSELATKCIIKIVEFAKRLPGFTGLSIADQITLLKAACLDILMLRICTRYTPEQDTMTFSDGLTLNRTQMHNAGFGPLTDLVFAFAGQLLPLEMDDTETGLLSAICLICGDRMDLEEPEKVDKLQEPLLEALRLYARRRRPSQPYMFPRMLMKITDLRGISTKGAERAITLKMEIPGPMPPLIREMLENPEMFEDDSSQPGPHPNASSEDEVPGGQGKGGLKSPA

[4] = target: T4, Retinoic acid receptor alpha (Homo sapiens, UniProt P10276); experiment: Transactivation potency for Retinoic acid receptor alpha; Not active
T4 sequence (P10276 whole entry): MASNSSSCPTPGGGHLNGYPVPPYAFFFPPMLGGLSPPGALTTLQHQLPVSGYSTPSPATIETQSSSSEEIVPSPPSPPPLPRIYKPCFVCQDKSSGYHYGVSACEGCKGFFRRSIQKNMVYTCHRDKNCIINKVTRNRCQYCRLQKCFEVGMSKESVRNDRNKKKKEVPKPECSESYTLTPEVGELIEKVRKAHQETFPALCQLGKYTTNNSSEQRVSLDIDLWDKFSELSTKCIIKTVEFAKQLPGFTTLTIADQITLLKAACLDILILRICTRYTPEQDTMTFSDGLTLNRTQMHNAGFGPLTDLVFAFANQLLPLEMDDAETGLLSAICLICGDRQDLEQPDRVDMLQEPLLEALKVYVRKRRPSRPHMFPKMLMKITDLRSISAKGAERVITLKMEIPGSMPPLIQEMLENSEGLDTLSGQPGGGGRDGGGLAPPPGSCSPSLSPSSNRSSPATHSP

[5] = target: T4, Retinoic acid receptor alpha; experiment: Binding affinity for Retinoic acid receptor alpha
[6] = target: T3, Retinoic acid receptor gamma; experiment: Binding affinity for Retinoic acid receptor gamma
[7] = target: T2, Retinoic acid receptor beta; experiment: Transactivation potency for Retinoic acid receptor beta
[8] = target: T4, Retinoic acid receptor alpha; experiment: Transactivation potency for Retinoic acid receptor alpha
[9] = target: T4, Retinoic acid receptor alpha; experiment: Binding affinity for Retinoic acid receptor alpha; Not active
[10] = target: T2, Retinoic acid receptor beta; experiment: Transactivation potency for Retinoic acid receptor beta; Not active
[11] = target: T3, Retinoic acid receptor gamma; experiment: Transactivation potency for Retinoic acid receptor gamma; Not active

| SMILES | IC60 [1] | Kd [2] | EC50 [3] | EC50 [4] | Kd [5] | Kd [6] | EC50 [7] | further results |
| --- | --- | --- | --- | --- | --- | --- | --- | --- |
| CCOC(=O)c1ccc(C#Cc2ccc3c(c2)C(C)(C)CCN3C(C)C)cc1 | 0.4 nM | – | – | – | – | – | – | – |
| CCOC(=O)c1ccc(C#Cc2ccc3c(c2)NCCC3(C)C)cc1 | 7 nM | – | – | – | – | – | – | – |
| CCCCCCCN1CCC(C)(C)c2cc(C#Cc3ccc(C(=O)O)cc3)ccc21 | – | > 1000 nM | 260 nM | Not Active | > 1000 nM | > 1000 nM | 280 nM | – |
| CCOC(=O)c1ccc(C#Cc2ccc3c(c2)N(C(C)C)C(=O)CC3(C)C)cc1 | 2.9 nM | – | – | – | – | – | – | – |
| CCOC(=O)c1ccc(/C=C(\C)c2ccc3c(c2)C(C)(C)CCC3(C)C)cc1 | 0.33 nM | – | – | – | – | – | – | – |
| CCOC(=O)c1ccc(C#Cc2ccc3c(c2)C(C)(C)CC(=O)N3C(C)C)cc1 | 6 nM | – | – | – | – | – | – | – |
| CC1=C(/C=C/C(C)=C/C=C/C(C)=C/C(=O)O)C(C)(C)CCC1 | 1.4 nM | – | – | – | – | – | – | – |
| CCCCCCCN1CCC(C)(C)c2cc(C#Cc3ccc(C(=O)OCC)cc3)ccc21 | > 300 nM | – | – | – | – | – | – | – |
| CCOC(=O)c1ccc(C#Cc2ccc3c(c2)N(C(C)C)CCC3(C)C)cc1 | < 0.1 nM | – | – | – | – | – | – | – |
| CC(C)N1CCC(C)(C)c2ccc(C#Cc3ccc(C(=O)O)cc3)cc21 | – | 18 nM | 3 nM | – | 52 nM | 52 nM | 3 nM | EC50 ([4]; read-out: EC50): 17 nM |

More lines, main results first:

| IC60 [1] | Kd [2] | EC50 [3] | EC50 [4] | Kd [5] | Kd [6] | EC50 [7] | SMILES | further results |
| --- | --- | --- | --- | --- | --- | --- | --- | --- |
| > 300 nM | – | – | – | – | – | – | CCOC(=O)c1ccc(C#Cc2ccc3c(c2)NC(=O)CC3(C)C)cc1 | – |
| 5 nM | – | – | – | – | – | – | CCOC(=O)c1ccc(C#Cc2ccc3c(c2)C(C)(C)CCN3)cc1 | – |
| – | 18 nM | 20 nM | Not Active | 58 nM | 23 nM | 4 nM | CC(C)N1C(=O)CC(C)(C)c2ccc(C#Cc3ccc(C(=O)O)cc3)cc21 | – |
| – | 17 nM | 4 nM | Not Active | 136 nM | 17 nM | 4 nM | CC(C)N1C(=O)CC(C)(C)c2cc(C#Cc3ccc(C(=O)O)cc3)ccc21 | – |
| – | > 1000 nM | 200 nM | Not Active | > 1000 nM | > 1000 nM | 1000 nM | CC1(C)CC(=O)Nc2cc(C#Cc3ccc(C(=O)O)cc3)ccc21 | – |
| – | 714 nM | 130 nM | – | 5200 nM | 2420 nM | 170 nM | CC1(C)CCNc2ccc(C#Cc3ccc(C(=O)O)cc3)cc21 | EC50 [8]: 2300 nM |
| > 300 nM | – | – | – | – | – | – | CCOC(=O)c1ccc(C#Cc2ccc3c(c2)C(C)(C)CC(=O)N3)cc1 | – |
| – | 211 nM | 54 nM | Not Active | – | 233 nM | 36 nM | CC1(C)CCNc2cc(C#Cc3ccc(C(=O)O)cc3)ccc21 | Kd [9]: Not Active |
| – | 60 nM | 6 nM | Not Active | 627 nM | 72 nM | 10 nM | CC(C)N1CCC(C)(C)c2cc(C#Cc3ccc(C(=O)O)cc3)ccc21 | – |
| – | > 1000 nM | – | Not Active | > 1000 nM | > 1000 nM | – | CC1(C)CC(=O)Nc2ccc(C#Cc3ccc(C(=O)O)cc3)cc21 | EC50 [10]: Not Active; EC50 [11]: Not Active |
